# Entries after “also recorded” stand apart in the source; their conditions may differ.
# Experiment: Safety and tolerability, healthy volunteers
# Type: in vivo, human
# Conditions: for number of treatment-related TEAEs: four subjects
# Description: The subjects were further assessed for safety. Accordingly, hematology, chemistry, urinalysis testing and vital signs examination (seated systolic [SBP] and diastolic blood pressure [DBP], pulse, respiration rate, and temperature) were performed at screening, check-in and at the exit visit prior to discharge from the study. Seated vital signs were checked after 1 h, 4 h, and 12 h of the first dose on Day 1. 12-lead ECGs were recorded on Day 1 and Day 7 in triplicate 0.75 h, 0.5 h and 0.25 h prior to the dose and after 0.5 h, 1 h, 2 h, 3 h, 4 h, 8 h, 12 h, and 24 h of the dose with subjects in supine position. Lumbar catheter was placed on day 7 and the vital signs were checked after 1 h, 4 h, and 12 h of the dose. Vital signs were examined within 15 minutes prior to the collection of samples for PK studies.
# All adverse event (AE)s were captured and documented throughout the study from the time of ICF signing to 7 days after the last dose of study medication or early termination.
# The AEs were coded according to MedDRA® and grouped by Preferred Terms (PT) and System Organ Class (SOC). All AEs were classified and graded according to CTCAE Version 4.03 or later. Incidence (n) and percentage (%) was reported for coded TEAEs by cohort for the SAF Population. Subjects with more than one of the same PTs within an SOC were counted only once.
# Categorical ECG analysis included the number and percentage of individuals with abnormal ECG findings and those with: absolute QTcF values >450 milliseconds, absolute QTcF values >480 milliseconds, absolute QTcF values >500 milliseconds, change from baseline >30 msec, and change from baseline >60 msec. No subject reported clinically significant abnormalities. […] No AEs related to ECG parameters were reported in any group during the study.
# Forty-one healthy adult male volunteers aged 18 to 45 with body mass indexes (BMI)≥18 to ≤30 Kg/m^2 and total body weight >50 kg (110 lb) were screened in order to enroll 19 subjects with an average age of 34.2 years (range 21.5-45.6 years) into this study Six participants were randomly assigned to the 48 and 192 mg cohorts, and seven participants were assigned to the 384 mg cohort. After an overnight fast, participants received once daily doses of vodobatinib as capsules for 7 days. Serial PK blood samples to measure vodobatinib plasma concentrations were collected at pre-dose and at 0.25, 0.5, 1, 1.5, 2, 2.5, 3, 4, 6, 8, 12, 16 and 24 h post-dose after the first dose on Day 1 and the last dose on day 7. Additional PK samples prior to the morning doses were taken on Days 3-6. On the morning of Day 7, prior to dosing, an indwelling intrathecal catheter was inserted in the lumbar region (L3-L5). Serial CSF samples were collected through the catheter connected via peristaltic pump to a fraction collector. At each designated CSF collection time point, 8 mL of CSF was collected at a flow rate of 0.5 mL/min over a 16-min period at pre-dose, and 0.5, 1.0, 1.5, 2, 2.5, 3, 4, 6, 8, 12 and 24 h post-dose. The first 2 mL of CSF was discarded, and the remaining 6 mL was used for the vodobatinib assay. The occurrence of treatment-emergent adverse events (TEAEs) and serious AEs (SAEs) reported through the completion of study were collected. Clinical laboratory parameters, vital signs and physical examination data and electrocardiogram (ECG) were collected and evaluated relative to baseline values.
# [1] = Total (N = 19), listed as vodobatinib
# [2] = all cohorts, listed as vodobatinib
compound,measurement,setting,value
Cc1ccc(C(=O)NNC(=O)c2c(C)cccc2Cl)cc1C#Cc1cnc2ccccc2c1 [N′-(2-chloro-6-methylbenzoyl)-4-methyl-3-[2-(3-quinolyl)ethynyl]-benzohydrazide],"IMP Related TEAEs: Abdominal Distension, N (%)",48 mg (N = 6),0
same,"IMP Related TEAEs: Gastrointestinal Disorders, N (%)",48 mg (N = 6),0
same,"IMP Related TEAEs: General Disorders and Administration Site Conditions, N (%)",48 mg (N = 6),0
same,"IMP Related TEAEs: Headache, N (%)",48 mg (N = 6),1 (16.7)
same,"IMP Related TEAEs: Musculoskeletal and Connective Tissue Disorders, N (%)",48 mg (N = 6),0
same,"IMP Related TEAEs: Myalgia, N (%)",48 mg (N = 6),0
same,"IMP Related TEAEs: Nausea, N (%)",48 mg (N = 6),0
same,"IMP Related TEAEs: Nervous System Disorders, N (%)",48 mg (N = 6),1 (16.7)
same,"IMP Related TEAEs: Pain, N (%)",48 mg (N = 6),0
same,"IMP Related TEAEs: Subjects with at least one AE, N (%)",48 mg (N = 6),1 (16.7)
same,"IMP Related TEAEs: Subjects with more than one AE, N (%)",48 mg (N = 6),0
same,Number of subjects with at least one TEAE,48 mg (N = 6),4
same,"Study Drug Related TEAEs, subjects",48 mg (N = 6),1
same,"Study Drug Withdrawn, subjects",48 mg (N = 6),0
same,"TEAEs Certainly, subjects",48 mg (N = 6),0
same,"TEAEs Mild, subjects",48 mg (N = 6),4
same,"TEAEs Moderate, subjects",48 mg (N = 6),1
same,"TEAEs None (row before Study Drug Withdrawn), subjects",48 mg (N = 6),4
same,"TEAEs Possibly, subjects",48 mg (N = 6),1
same,"TEAEs Probably, subjects",48 mg (N = 6),0
same,"TEAEs Unlikely, subjects",48 mg (N = 6),0
same,"TEAEs Unrelated, subjects",48 mg (N = 6),4
same,number of TEAEs,48 mg (N = 6),9
same,"IMP Related TEAEs: Abdominal Distension, N (%)",192 mg (N = 6),0
same,"IMP Related TEAEs: Gastrointestinal Disorders, N (%)",192 mg (N = 6),1 (16.7)
same,"IMP Related TEAEs: General Disorders and Administration Site Conditions, N (%)",192 mg (N = 6),0
same,"IMP Related TEAEs: Headache, N (%)",192 mg (N = 6),1 (16.7)
same,"IMP Related TEAEs: Musculoskeletal and Connective Tissue Disorders, N (%)",192 mg (N = 6),1 (16.7)
same,"IMP Related TEAEs: Myalgia, N (%)",192 mg (N = 6),1 (16.7)
same,"IMP Related TEAEs: Nausea, N (%)",192 mg (N = 6),1 (16.7)
same,"IMP Related TEAEs: Nervous System Disorders, N (%)",192 mg (N = 6),1 (16.7)
same,"IMP Related TEAEs: Pain, N (%)",192 mg (N = 6),0
same,"IMP Related TEAEs: Subjects with at least one AE, N (%)",192 mg (N = 6),1 (16.7)
same,"IMP Related TEAEs: Subjects with more than one AE, N (%)",192 mg (N = 6),1 (16.7)
same,Number of subjects with at least one TEAE,192 mg (N = 6),4
same,"Study Drug Related TEAEs, subjects",192 mg (N = 6),1
same,"Study Drug Withdrawn, subjects",192 mg (N = 6),0
same,"TEAEs Certainly, subjects",192 mg (N = 6),0
same,"TEAEs Mild, subjects",192 mg (N = 6),4
same,"TEAEs Moderate, subjects",192 mg (N = 6),2
same,"TEAEs None (row before Study Drug Withdrawn), subjects",192 mg (N = 6),4
same,"TEAEs Possibly, subjects",192 mg (N = 6),1
same,"TEAEs Probably, subjects",192 mg (N = 6),0
same,"TEAEs Unlikely, subjects",192 mg (N = 6),1
same,"TEAEs Unrelated, subjects",192 mg (N = 6),3
same,number of TEAEs,192 mg (N = 6),10
same,"IMP Related TEAEs: Abdominal Distension, N (%)",384 mg (N = 7),1 (14.3)
same,"IMP Related TEAEs: Gastrointestinal Disorders, N (%)",384 mg (N = 7),1 (14.3)
same,"IMP Related TEAEs: General Disorders and Administration Site Conditions, N (%)",384 mg (N = 7),1 (14.3)
same,"IMP Related TEAEs: Headache, N (%)",384 mg (N = 7),1 (14.3)
same,"IMP Related TEAEs: Musculoskeletal and Connective Tissue Disorders, N (%)",384 mg (N = 7),0
same,"IMP Related TEAEs: Myalgia, N (%)",384 mg (N = 7),0
same,"IMP Related TEAEs: Nausea, N (%)",384 mg (N = 7),1 (14.3)
same,"IMP Related TEAEs: Nervous System Disorders, N (%)",384 mg (N = 7),1 (14.3)
same,"IMP Related TEAEs: Pain, N (%)",384 mg (N = 7),1 (14.3)
same,"IMP Related TEAEs: Subjects with at least one AE, N (%)",384 mg (N = 7),2 (28.6)
same,"IMP Related TEAEs: Subjects with more than one AE, N (%)",384 mg (N = 7),1 (14.3)
same,Number of subjects with at least one TEAE,384 mg (N = 7),3
same,"Study Drug Related TEAEs, subjects",384 mg (N = 7),2
same,"Study Drug Withdrawn, subjects",384 mg (N = 7),0
same,"TEAEs Certainly, subjects",384 mg (N = 7),0
same,"TEAEs Mild, subjects",384 mg (N = 7),3
same,"TEAEs Moderate, subjects",384 mg (N = 7),1
same,"TEAEs None (row before Study Drug Withdrawn), subjects",384 mg (N = 7),3
same,"TEAEs Possibly, subjects",384 mg (N = 7),2
same,"TEAEs Probably, subjects",384 mg (N = 7),1
same,"TEAEs Unlikely, subjects",384 mg (N = 7),3
same,"TEAEs Unrelated, subjects",384 mg (N = 7),0
same,number of TEAEs,384 mg (N = 7),9
same,subjects with absolute QTcF >450 ms,"48, 192, 384 mg",None of the subjects
same,"Study Drug Withdrawn, subjects",Total (N = 19),0
same,"TEAEs Certainly, subjects",Total (N = 19),0
same,"TEAEs Mild, subjects",Total (N = 19),11
same,"TEAEs Moderate, subjects",Total (N = 19),4
same,"TEAEs None (row before Study Drug Withdrawn), subjects",Total (N = 19),11
same,"TEAEs Possibly, subjects",Total (N = 19),4
same,"TEAEs Probably, subjects",Total (N = 19),1
same,"TEAEs Unlikely, subjects",Total (N = 19),4
same,"TEAEs Unrelated, subjects",Total (N = 19),7
same,number of TEAEs,Total (N = 19),28
same,Number of subjects with at least one TEAE,[1],Eleven
same,"Study Drug Related TEAEs, subjects",[1],Four
same,SAEs,all cohorts,No subject experienced an SAE; also recorded: no SAEs
same,TEAE abdominal distention,all cohorts,10.5%
same,TEAE back pain,all cohorts,10.5%
same,TEAE headache and nausea,all cohorts,15.8%
same,TEAE post lumbar puncture syndrome,all cohorts,42.1%
same,"findings in clinical laboratory results, vital signs, ECGs, physical examinations",all cohorts,no clinically relevant or significant findings
same,subjects with TEAEs unlikely related to study treatment,all cohorts,21%
same,subjects with TEAEs unrelated to study treatment,all cohorts,37%
same,subjects with mild TEAEs,all cohorts,58%
same,subjects with moderate TEAEs,all cohorts,21%
same,subjects reporting TEAEs,all cohorts (N = 19),58%
same,number of treatment-related TEAEs,all cohorts,7
same,number of treatment-related TEAEs,[2],seven
same,SAEs,[2],no SAEs

# — patent US20250275953A1, “VODOBATINIB FOR REDUCING PROGRESSION OF PARKINSON'S DISEASE” (Sun Pharma Advanced Research Company Ltd., priority 2022, published 2025)
